Key:
IFNβ mRNA = IFNβ mRNA expression in liver after intravenous administration; type: in vivo, C57BL/6 mice; details: 20 μg intravenously; 4 hours
Method: The effect of administration of exosomes containing STING agonist CL656 on gene expression in C57BL/6 liver was investigated.
After thawing, exosomes in buffer B composition containing STING agonist CL656 was stored at 4° C. and 22° C. for 24 h or 72 h as described in Example 5. PBS, CL656 (20 μg), exosomes, or exosomes in buffer B containing STING agonist CL656 that incubated as described above (600 ng of CL656 per mouse) were administered into C57BL/6 mice intravenously. As a control, exosomes in buffer B composition containing STING agonist CL656 that were stored at −80° C. (6 ng, 60 ng, and 600 ng per mouse) were administered (considered as 0 h). After 4 hours, mice were euthanized and liver was collected. Total RNA was isolated from liver by using RNeasy Lipid Mini Kit (Qiagen) and expression level of IFNβ mRNA was determined by RT-qPCR. Relative expression was normalized against housekeeping gene RPS13. FIG. 3C provides the results from the liver study.

[1] = Intratumoral concentration of STING agonist in B16-F10 melanoma tumors; type: in vivo, C57BL/6 mice; details: 0.3 μg of CL656 intratumoral dose; after about 360 minutes
Method: The intratumoral concentration of STING agonist in Buffer B over time was investigated.
Briefly, B16-F10 melanoma cells were subcutaneously transplanted into C57BL/6 mice. When dermal tumors were visible, each animal received an intratumoral dose of either free STING agonist (0.3 μg of CL656) or exosome-encapsulated STING agonist (0.3 μg of CL656). Intratumoral concentration of free STING agonist and exosome-encapsulated STING agonist was measured at 5, 30, 120, 360, 1440, and 2880 minutes after injection. […] Further shown in FIG. 3D, the concentration of exosome-encapsulated STING agonist fell slowly to about 100 nM at 1440 minutes. Thereafter, the concentration of exosome-encapsulated STING agonist was steady at about 100 nM until the last measurement was taken at 2880 minutes.

intratumoral concentration [1]: not detectable
Structure (SMILES): Nc1ncnc2c1ncn2[C@@H]1O[C@@H]2COP(=O)(S)O[C@H]3[C@@H](F)[C@H](n4cnc5c(=O)[nH]cnc54)O[C@@H]3COP(O)(=S)O[C@H]2[C@H]1F (some centres unmarked) [CL656]
IFNβ mRNA in liver (RT-qPCR, normalized against RPS13) (IFNβ mRNA): low level
